Source: ChEMBL document CHEMBL1201862, “PubChem BioAssay data set” (2004)
Values joined by “and” are separate entries in the source; they are usually repeats but may differ in a detail not shown here. Identical values can stand only once.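 Protocol summary: plate cells (96-well), add compound at 5 concentrations, incubate 48 h, interpolate endpoints linearly. GI50: concentration for 50% inhibition of growth.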 Active and inactive are the calls of the source. No stated cut-off is given here; in the data, active = GI50 up to about 1.1 µM and inactive = higher.

Tests used:
Experiment in all cases: NCI-60 cell line screen, 48 h
A498 = test system: A498
A549 = test system: A549
CAKI-1 = test system: CAKI-1
HCT-116 = test system: HCT-116
HL-60 = test system: HL-60
M14 = test system: M14
NCI-H460 = test system: NCI-H460
OVCAR-3 = test system: OVCAR-3
OVCAR-5 = test system: OVCAR-5
RPMI-8226 = test system: RPMI-8226
SK-MEL-2 = test system: SK-MEL-2
SK-OV-3 = test system: SK-OV-3
SNB-19 = test system: SNB-19
U-251 = test system: U-251
UACC-257 = test system: UACC-257
UACC-62 = test system: UACC-62
K562 = test system: K562
RXF 393 = test system: RXF 393
SF-268 = test system: SF-268
SW-620 = test system: SW-620

Measured: GI50

O=C1OC(c2ccccc2)=N/C1=C\c1ccccc1
inactive: A498 > 100 µM | A549 > 100 µM | CAKI-1 > 100 µM | HCT-116 > 100 µM | HL-60 29.5 µM and 18.7 µM | M14 26.9 µM and 30.4 µM | NCI-H460 45.9 µM and 43.9 µM | OVCAR-3 24 µM | OVCAR-5 > 100 µM | RPMI-8226 30.5 µM and 22.5 µM | SK-MEL-2 17.8 µM | SK-OV-3 > 100 µM | SNB-19 66.7 µM and 40.1 µM | U-251 32.1 µM and 35.1 µM | UACC-257 41.4 µM and 25.9 µM | UACC-62 > 100 µM

COc1ccc2c(c1)[n+]([O-])c(C(C)=O)c(C)[n+]2[O-]
inactive: A549 > 100 µM | CAKI-1 > 100 µM | HCT-116 > 100 µM | HL-60 > 100 µM | K562 > 100 µM | M14 > 100 µM | NCI-H460 > 100 µM | OVCAR-3 > 100 µM | OVCAR-5 > 100 µM | RPMI-8226 > 100 µM | RXF 393 > 100 µM | SF-268 > 100 µM | SK-MEL-2 > 100 µM | SK-OV-3 > 100 µM | SNB-19 > 100 µM | SW-620 > 100 µM | U-251 > 100 µM | UACC-257 > 100 µM | UACC-62 > 100 µM

Cc1ccccc1NC(=O)CSc1nnc(Cc2ccccc2)o1
inactive: A549 > 100 µM | HCT-116 > 100 µM | K562 > 100 µM | M14 > 100 µM | NCI-H460 > 100 µM | OVCAR-3 > 100 µM | OVCAR-5 > 100 µM | RPMI-8226 > 100 µM | RXF 393 > 100 µM | SF-268 > 100 µM | SK-MEL-2 > 100 µM | SK-OV-3 > 100 µM | U-251 > 100 µM | UACC-257 > 100 µM | UACC-62 > 100 µM

CN(CC(=O)O)c1ncc2c(n1)-c1ccccc1OC2c1ccccc1 (stereo not drawn)
inactive: A549 76.4 µM | CAKI-1 > 100 µM | HL-60 33.2 µM | K562 71.8 µM | M14 > 100 µM | NCI-H460 89.7 µM | OVCAR-3 > 100 µM | OVCAR-5 > 100 µM | RPMI-8226 38.1 µM | RXF 393 56.1 µM | SF-268 > 100 µM | SK-MEL-2 87.7 µM | SK-OV-3 > 100 µM | SNB-19 > 100 µM | SW-620 > 100 µM | U-251 > 100 µM | UACC-257 > 100 µM | UACC-62 92.5 µM

CC(C)[C@H]1CO[C@@H]2O[C@H](C)CC(=O)N21
inactive: A549 > 100 µM | CAKI-1 > 100 µM | HCT-116 > 100 µM | HL-60 > 100 µM | K562 > 100 µM | M14 > 100 µM | NCI-H460 > 100 µM | OVCAR-3 > 100 µM | RPMI-8226 > 100 µM | RXF 393 > 100 µM | SF-268 > 100 µM | SK-MEL-2 > 100 µM | SK-OV-3 > 100 µM | SNB-19 > 100 µM | SW-620 > 100 µM | U-251 > 100 µM | UACC-257 > 100 µM | UACC-62 > 100 µM

CCCCCCC1NN(C(C)=O)C(CCCCCC)NN1C(C)=O (stereo not drawn)
inactive: CAKI-1 > 100 µM | HCT-116 > 100 µM | HL-60 46.5 µM | K562 32 µM | M14 > 100 µM | NCI-H460 17.7 µM | OVCAR-3 > 100 µM | OVCAR-5 > 100 µM | RPMI-8226 24 µM | SK-MEL-2 > 100 µM | SK-OV-3 > 100 µM | SNB-19 > 100 µM | SW-620 20.4 µM | U-251 > 100 µM | UACC-257 > 100 µM | UACC-62 > 100 µM

Clc1ccc(OC2CCO2)cc1Cl (stereo not drawn)
inactive: A498 38 µM | A549 > 100 µM | CAKI-1 53.1 µM | HCT-116 33.8 µM | HL-60 35.6 µM | K562 40.6 µM | M14 > 100 µM | NCI-H460 47.2 µM | OVCAR-3 57.8 µM | OVCAR-5 83.2 µM | RPMI-8226 43.5 µM | SF-268 78.2 µM | SK-OV-3 > 100 µM | SNB-19 > 100 µM | SW-620 17.9 µM | U-251 88.3 µM | UACC-257 40 µM | UACC-62 72.6 µM

Clc1cc(Cl)cc(C2SCc3nc4ccccc4n32)c1 (stereo not drawn)
inactive: A549 19.6 µM | CAKI-1 14.9 µM | HCT-116 > 10 µM | HL-60 4.31 µM | K562 3.82 µM | NCI-H460 14.3 µM | OVCAR-3 16.9 µM | OVCAR-5 18.1 µM | RPMI-8226 11.5 µM | RXF 393 14.6 µM | SF-268 20.4 µM | SK-MEL-2 17.6 µM | SK-OV-3 22.8 µM | SNB-19 20.7 µM | SW-620 11 µM | U-251 14 µM | UACC-257 15.2 µM | UACC-62 21.5 µM
